Assays:
Assay in all cases: drug sensitivity score (DSS) from 5-point dose-response viability curve (DSS (area-under-curve based score)); higher = more sensitive (stronger growth inhibition or killing); extreme values may be limits of the assay
Settings in all cases: exposure time: 72 h; concentration range: 5 concentrations over 10,000-fold range
OVCAR8 = test system: OVCAR8
Outline: (§1)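 Viability of ovarian cancer and normal ovarian cell lines was read by CellTiter-Glo luminescence after 3 days at 37°C and 5% CO2 in 384-well plates holding 1,500 cells per well. Drugs had been dispensed in DMSO or water with an Echo 550 at five concentrations over a 10,000-fold range. Using Breeze software, a drug sensitivity score was assigned per cell line and drug, higher scores meaning more sensitive, and zero means no response.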

COV318 = test system: COV318
Outline: as §1

Kuramochi = test system: Kuramochi
Outline: as §1

OVCAR4 = test system: OVCAR4
Outline: as §1

CAOV3 = test system: CAOV3
Outline: as §1

Ovsaho = test system: Ovsaho
Outline: as §1

COV362 = test system: COV362
Outline: as §1

HOSE1C = test system: HOSE1C
Outline: as §1

OV90 = test system: OV90
Outline: as §1

HOSE2C = test system: HOSE2C
Outline: as §1

OVCAR5 = test system: OVCAR5
Outline: as §1

JHOS2 = test system: JHOS2
Outline: as §1

| Compound | drug sensitivity score (OVCAR8) | drug sensitivity score (COV318) | drug sensitivity score (Kuramochi) | drug sensitivity score (OVCAR4) | drug sensitivity score (CAOV3) | drug sensitivity score (Ovsaho) | drug sensitivity score (COV362) | drug sensitivity score (HOSE1C) | drug sensitivity score (OV90) | drug sensitivity score (HOSE2C) | drug sensitivity score (OVCAR5) | drug sensitivity score (JHOS2) |
| --- | --- | --- | --- | --- | --- | --- | --- | --- | --- | --- | --- | --- |
| O[C@H]1CC[C@H](Nc2ncc3nc(Nc4c(F)cc(F)cc4F)n([C@H]4CCOC4)c3n2)CC1 [Tanzisertib] | 0 | 0 | 0.8 | 0 | 0 | 0.4 | 0 | 0 | 0 | 0 | 1.9 | 0 |
| C[C@@H](C(=O)O)c1ccc(-c2ccccc2)c(F)c1 [Tarenflurbil] | 0 | 0.3 | 0 | 0 | 0 | 0 | 0 | 0 | 1.3 | 0 | 0.3 | 0.7 |
| Cc1nc(-c2cn3c(n2)-c2ccc(-c4cnn(C(C)(C)C(N)=O)c4)cc2OCC3)n(C(C)C)n1 [Taselisib] | 2.1 | 2.5 | 4.1 | 2.1 | 7.5 | 3.1 | 1.9 | 4.5 | 0.3 | 7.8 | 7.9 | 3.3 |
| COc1cccc2c1c(O)c(C(=O)N(C)c1ccc(C(F)(F)F)cc1)c(=O)n2C [Tasquinimod] | 0 | 0 | 0.2 | 1.9 | 0 | 2 | 0 | 0 | 0 | 0 | 0 | 0.6 |
| CCN(c1cc(-c2ccc(CN3CCOCC3)cc2)cc(C(=O)NCc2c(C)cc(C)[nH]c2=O)c1C)C1CCOCC1 [Tazemetostat] | 0 | 0 | 0 | 0.1 | 0 | 0 | 2.3 | 0 | 0 | 0 | 0 | 2.1 |
| CNC(=O)c1cc(COc2nnc(Nc3ccc(Cl)cc3)c3ccoc23)ccn1 [Telatinib] | 0 | 0.2 | 0.1 | 0 | 0 | 0 | 0 | 0 | 0 | 0 | 0 | 0 |
| Cn1nnc2c(C(N)=O)ncn2c1=O [Temozolomide] | 0 | 0 | 0 | 0 | 0 | 0 | 0 | 0 | 0 | 0.5 | 0 | 0 |
| CO[C@H]1C[C@@H]2CC[C@@H](C)[C@@](O)(O2)C(=O)C(=O)N2CCCC[C@H]2C(=O)O[C@H]([C@H](C)C[C@@H]2CC[C@@H](OC(=O)C(C)(CO)CO)[C@H](OC)C2)CC(=O)[C@H](C)/C=C(\C)[C@@H](O)[C@@H](OC)C(=O)[C@H](C)C[C@H](C)/C=C/C=C/C=C/1C [Temsirolimus] | 7.6 | 0 | 3.2 | 3.1 | 6.6 | 3 | 0 | 3.9 | 11.2 | 3.2 | 8 | 2.8 |
| COc1cc([C@@H]2c3cc4c(cc3[C@@H](O[C@@H]3O[C@@H]5CO[C@@H](c6cccs6)O[C@H]5[C@H](O)[C@H]3O)[C@H]3COC(=O)[C@H]23)OCO4)cc(OC)c1O [Teniposide] | 0 | 0 | 0 | 0 | 0 | 0 | 0 | 0 | 0 | 0 | 0 | 0 |
| CN1CCC(COc2cnc(-c3cccc(Cn4nc(-c5cccc(C#N)c5)ccc4=O)c3)nc2)CC1 [Tepotinib] | 0 | 0 | 0 | 0 | 0 | 0.8 | 0 | 0 | 0 | 0 | 0 | 0.5 |
| COc1cc2c(Nc3ccc(Cl)c(Cl)c3F)ncnc2cc1OC[C@@H]1C[C@@H]2CN(C)C[C@@H]2C1 [Tesevatinib] | 1.3 | 0 | 1.2 | 1.6 | 8.4 | 2.2 | 0.9 | 1.6 | 0 | 0 | 5 | 0.1 |
| O=C1CCC(N2C(=O)c3ccccc3C2=O)C(=O)N1 (stereo not given) [Thalidomide] | 0 | 0 | 0 | 0 | 0 | 0 | 0 | 0 | 0 | 0 | 0 | 0 |
| Nc1nc2[nH]cnc2c(=S)[nH]1 [Thioguanine] | 12.7 | 0.7 | 7.2 | 9.9 | 11.9 | 8 | 9.4 | 3.4 | 6.3 | 2.4 | 13.4 | 2.3 |
| O=c1sn(-c2cccc3ccccc23)c(=O)n1Cc1ccccc1 [Tideglusib] | 0 | 0 | 0 | 0 | 0 | 0.1 | 0 | 0 | 0 | 0 | 0 | 0 |
| Cn1cncc1[C@@](N)(c1ccc(Cl)cc1)c1ccc2c(c1)c(-c1cccc(Cl)c1)cc(=O)n2C [Tipifarnib] | 4.2 | 5.2 | 6.8 | 4.7 | 3.1 | 7.5 | 1.7 | 9.2 | 4.7 | 3 | 4.3 | 3.1 |
| CC#CC(=O)N1CC[C@@H](n2c(=O)n(-c3ccc(Oc4ccccc4)cc3)c3c(N)ncnc32)C1 [Tirabrutinib] | 0 | 0 | 1.3 | 0 | 1.6 | 0.3 | 0 | 0 | 0 | 0 | 0.8 | 0 |
| O=C1NC(=O)[C@@H](c2cn3c4c(cccc24)CCC3)[C@@H]1c1c[nH]c2ccccc12 [Tivantinib] | 4.1 | 1.9 | 2.9 | 1.6 | 3.7 | 4.2 | 1.6 | 5.2 | 2.8 | 4.7 | 4 | 3 |
| COc1cc2nccc(Oc3ccc(NC(=O)Nc4cc(C)on4)c(Cl)c3)c2cc1OC [Tivozanib] | 2.6 | 0.6 | 1.7 | 2.3 | 1.8 | 0.1 | 0 | 2.4 | 5.6 | 6.8 | 4 | 0.2 |
| C[C@@H]1CCN(C(=O)CC#N)C[C@@H]1N(C)c1ncnc2[nH]ccc12 [Tofacitinib] | 0 | 0 | 0 | 0 | 0 | 0 | 0 | 2.8 | 0.3 | 0.2 | 0.2 | 0 |
| CC[C@@]1(O)C(=O)OCc2c1cc1n(c2=O)Cc2cc3c(CN(C)C)c(O)ccc3nc2-1 [Topotecan] | 13.5 | 6.3 | 5.4 | 7.2 | 18.2 | 8.5 | 5.7 | 26.6 | 15.4 | 24.8 | 10.1 | 11 |
| CN(C)CCOc1ccc(/C(=C(/CCCl)c2ccccc2)c2ccccc2)cc1 [Toremifene] | 2.9 | 2.3 | 3.5 | 2 | 1.8 | 3.5 | 0.6 | 3.5 | 5.3 | 1.6 | 4.9 | 2 |
| CC(C)C[C@@H](C(=O)N[C@H](C(=O)OC1CCCC1)c1ccccc1)[C@H](O)C(=O)NO [Tosedostat] | 6.9 | 0.4 | 0.6 | 7.4 | 7.4 | 5.1 | 0 | 0 | 12.3 | 2.1 | 8.3 | 15.7 |
| Cc1cc(Nc2cc(N3CCN(C)CC3)nc(Sc3ccc(NC(=O)C4CC4)cc3)n2)n[nH]1 [Tozasertib] | 6.5 | 1.3 | 3.6 | 5.8 | 25.2 | 2.3 | 1.6 | 5.2 | 6.4 | 6.8 | 6.1 | 2.1 |
| CC(=O)Nc1cccc(-n2c(=O)n(C3CC3)c(=O)c3c(Nc4ccc(I)cc4F)n(C)c(=O)c(C)c32)c1 [Trametinib] | 3.4 | 0 | 7.1 | 1.9 | 11.8 | 12.4 | 4.9 | 0 | 25 | 0 | 12.9 | 6.7 |
| CC1=C(/C=C/C(C)=C/C=C/C(C)=C/C(=O)O)C(C)(C)CCC1 [Tretinoin] | 0 | 0 | 0 | 0 | 0 | 0 | 0 | 0 | 0 | 5.7 | 0 | 0.5 |
| NC(=S)N/N=C/c1ncccc1N [Triapine] | 4.9 | 0.6 | 0.5 | 0 | 4.1 | 2.4 | 0.5 | 9.7 | 1.1 | 7.7 | 2.6 | 3.1 |
| O=c1[nH]c(=O)n([C@H]2C[C@H](O)[C@@H](CO)O2)cc1C(F)(F)F [Trifluridine] | 2.7 | 0 | 0 | 1.1 | 3.3 | 2 | 0 | 0 | 2.1 | 0 | 2.9 | 0.6 |
| O=C(CCCCCCC(=O)Nc1ccc([C@H]2O[C@@H](CSc3nc(-c4ccccc4)c(-c4ccccc4)o3)C[C@@H](c3ccc(CO)cc3)O2)cc1)NO [Tubacin] | 5.6 | 2 | 2.6 | 2.7 | 1.8 | 2.3 | 0.7 | 2.5 | 2.4 | 2.6 | 2.4 | 1.7 |
| CN1CCc2c(c3ccccc3n2Cc2ccc(C(=O)NO)cc2)C1 [Tubastatin A] | 4.6 | 0.9 | 1.5 | 1.7 | 0.7 | 1 | 1.7 | 4.2 | 3.4 | 2.7 | 5.2 | 1.8 |
| Cc1cc(Nc2ncnc3ccc(NC4=NC(C)(C)CO4)cc23)ccc1Oc1ccn2ncnc2c1 [Tucatinib] | 0 | 0 | 0 | 0 | 0 | 0 | 0 | 0 | 0 | 0 | 0 | 0 |
